This note sets out measurements from ChEMBL document CHEMBL3112406, “Virtual screening and biochemical evaluation to identify new inhibitors of mammalian target of rapamycin (mTOR)” (Bioorg Med Chem Lett, 2014).

The target in this test is Serine/threonine-protein kinase mTOR (Homo sapiens, UniProt P42345). Nature of the test: Inhibition of mTOR (unknown origin) by KINOMEscan assay.

Turning to `c1ccc(-c2c(-c3ccccc3)n(Cc3ccco3)c3ncnc(NCCCn4ccnc4)c23)cc1`, it took 54.1 µM to reach half-maximal inhibition (IC50). This lies in the double-digit micromolar range.
